The source of these data is ChEMBL document CHEMBL3272106, “Synthesis and narcotic agonist-antagonist evaluation of some 2,6-methano-3-benzazocine-11 propanols. Analogues of the ring C bridged oripavine-7-mehtanols” (1977).

Experiment [1] deals with Rattus norvegicus. Briefly: Narcotic antagonist activity in rat assessed as inhibition of phenazocine-induced response at 80 mg/kg, sc. It counts as functional, organism-based. Further details: dose 80 mg/kg.
Experiment [2] deals with Mus musculus. In words: Narcotic agonist activity in sc dosed albino mouse assessed as protection against acetylcholine-induced writhing administered 20 mins prior to acetylcholine challenge measured for 2 mins. It counts as functional.
In experiment [3] the test system is Rattus norvegicus. Briefly: Narcotic antagonist activity in sc dosed rat assessed as 50% inhibition of phenazocine-induced response. The class given is functional.
Experiment [4] concerns Mus musculus. Briefly: Narcotic agonist activity in albino mouse assessed as protection against acetylcholine-induced writhing at 25 mg/kg, sc administered 20 mins prior to acetylcholine challenge measured for 2 mins relative to control. The class given is functional. The note with it: route subcutaneous.
The subject of experiment [5] is Rattus norvegicus. In words: Narcotic antagonist activity in rat assessed as inhibition of phenazocine-induced response at 80 mg/kg, sc relative to nalorphine. The class given is functional. Further details: scale not given: the % may be the effect or the level left. Conditions: route subcutaneous.
The mark [6] stands for this setting: Mus musculus, sc, read-out: ED50.

Calls of active or inactive are those of the source. No cut-off for these calls is given here.

For `CN1CC[C@]2(C)c3cc(O)ccc3C[C@@H]1[C@H]2CCC(C)(O)C(C)(C)C` (stereo in doubt; 4f), the inhibition entry in experiment [1] was “inactive”.

With `CN1CC[C@]2(C)c3cc(O)ccc3C[C@@H]1[C@H]2CCC(C)(O)C(C)(C)C.CS(=O)(=O)O` (stereo in doubt; 4f), in experiment [2], the ED50 is over 25 mg/kg.

For `C=CCN1CC[C@]23c4c5ccc(O)c4O[C@H]2[C@@H](O)C=C[C@H]3[C@H]1C5` [NALORPHINE], the AD50 in experiment [3] worked out at 0.1 mg/kg.

As to `CCCCC(C)(O)CC[C@@H]1[C@H]2Cc3ccc(O)cc3[C@@]1(C)CCN2C.CS(=O)(=O)O` (stereo not given in full), the 50% effective dose (ED50) in experiment [2] (setting [6]) amounted to 2.5 mg/kg. The inhibition result in experiment [1] was “inactive”.

`CC(C)(O)CC[C@@H]1[C@H]2Cc3ccc(O)cc3[C@@]1(C)CCN2CC1CC1`: in experiment [3], the AD50 came to 0.046 mg/kg. For the same molecule, the ED50 in experiment [2] (setting [6]) was 16 mg/kg.

For the molecule `C[C@H]1[C@@H]2Cc3ccc(O)cc3[C@]1(C)CCN2C` [METAZOCINE], the ED50 in experiment [2] (setting [6]) was 0.54 mg/kg. Further, the inhibition result in experiment [1] was “inactive”.

Consider `CO[C@@]12CC[C@@]3(C[C@@H]1[C@](C)(O)C(C)(C)C)[C@H]1Cc4ccc(O)c5c4[C@@]3(CCN1CC1CC1)[C@H]2O5` [BUPRENORPHINE], for which the AD50 in experiment [3] was found to be 0.11 mg/kg.

For `CC(C)(C)C(C)(O)CC[C@]1(C)[C@H]2Cc3ccc(O)cc3[C@@]1(C)CCN2CC1CC1.CS(=O)(=O)O` (stereo in doubt; 4q), the Activity in experiment [4] is given as under 50%. In experiment [3], the AD50 worked out at 0.022 mg/kg.

Turning to `CC(C)(O)CC[C@]1(C)[C@H]2Cc3ccc(O)cc3[C@@]1(C)CCN2CC1CC1.Cl`, in experiment [3], the AD50 amounted to 0.006 mg/kg. For the same molecule, the ED50 in experiment [2] (setting [6]) stood at 4.5 mg/kg.

On to `CCCC(C)(O)CC[C@@H]1[C@H]2Cc3ccc(O)cc3[C@@]1(C)CCN2CC1CC1.CS(=O)(=O)O` (stereo not given in full), for which the AD50 in experiment [3] is 0.019 mg/kg. The 50% effective dose (ED50) in experiment [2] (setting [6]) stood at 7.6 mg/kg.

For the molecule `CCCCC(C)(O)CC[C@@H]1[C@H]2Cc3ccc(O)cc3[C@@]1(C)CCN2CC1CC1.CS(=O)(=O)O` (stereo not given in full), in experiment [3], the AD50 is 0.025 mg/kg. Further, in experiment [2] (setting [6]), the 50% effective dose (ED50) turned out to be 6.5 mg/kg.

In the case of `C[C@H]1[C@H]2Cc3ccc(O)cc3[C@]1(C)CCN2CC1CC1` [CYCLAZOCINE], the AD50 in experiment [3] worked out at 0.007 mg/kg. Also, the ED50 in experiment [2] (setting [6]) stood at 0.15 mg/kg.

As to `CC(C)(C)C(C)(O)CC[C@@H]1[C@H]2Cc3ccc(O)cc3[C@@]1(C)CCN2CC1CC1.CS(=O)(=O)O` (single isomer, unassigned; isomer I), the Activity in experiment [4] is under 50%. For the same molecule, the AD50 in experiment [3] was found to be 0.27 mg/kg. In experiment [2], the ED50 is over 25 mg/kg.

Consider `CCCC(C)(O)CC[C@@H]1[C@H]2Cc3ccc(O)cc3[C@@]1(C)CCN2C.CS(=O)(=O)O` (stereo not given in full), for which the ED50 in experiment [2] (setting [6]) stood at 2.6 mg/kg. Besides, in experiment [1], the inhibition entry is “inactive”.

`CN1CC[C@]2(C)c3cc(O)ccc3C[C@@H]1[C@H]2CCC(C)(C)O`: the ED50 in experiment [2] (setting [6]) came out at 8.2 mg/kg. Moreover, the inhibition result in experiment [1] is “inactive”.

For the molecule `CN1CC[C@]2(C)c3cc(O)ccc3C[C@@H]1[C@@]2(C)CCC(C)(O)C(C)(C)C.CS(=O)(=O)O` (mixture of isomers), the Activity in experiment [4] is on record as under 50%; in experiment [5], 30%. The AD50 in experiment [3] is 0.33 mg/kg. In addition, in experiment [2] (setting [6]), the ED50 was over 25 mg/kg.

With `CC(C)(C)C(C)(O)CC[C@@H]1[C@H]2Cc3ccc(O)cc3[C@@]1(C)CCN2CC1CC1.CS(=O)(=O)O` (single isomer, unassigned; isomer II), the AD50 in experiment [3] amounted to 1.1 mg/kg. Further, the 50% effective dose (ED50) in experiment [2] came to 9 mg/kg.

In the case of `CN1CC[C@]2(C)c3cc(O)ccc3C[C@@H]1[C@@]2(C)CCC(C)(O)C(C)(C)C` (stereo not given in full) [listing 1 of 2 here], in experiment [4], the Activity is listed as under 50%. Besides, in experiment [2] (setting [6]), the ED50 is over 25 mg/kg.

As for `CC(C)(C)C(C)(O)CC[C@]1(C)[C@H]2Cc3ccc(O)cc3[C@@]1(C)CCN2CC1CC1.CS(=O)(=O)O` (single isomer, unassigned; isomer II), in experiment [3], the AD50 was 0.71 mg/kg.

Turning to `CN1CC[C@]2(C)c3cc(O)ccc3C[C@@H]1[C@@]2(C)CCC(C)(O)C(C)(C)C` (stereo not given in full) [listing 2 of 2 here], in experiment [1], the inhibition result was “inactive”.

In the case of `CN1CC[C@]2(C)c3cc(O)ccc3C[C@@H]1[C@@]2(C)CCC(C)(C)O`, the AD50 in experiment [3] turned out to be 2.3 mg/kg. The ED50 in experiment [2] (setting [6]) was determined as 3.8 mg/kg.

For `CCC(C)(O)CC[C@@H]1[C@H]2Cc3ccc(O)cc3[C@@]1(C)CCN2C.CS(=O)(=O)O` (stereo not given in full), the ED50 in experiment [2] (setting [6]) is 3.3 mg/kg. In experiment [1], the inhibition result is “inactive”.

With `CCC(C)(O)CC[C@@H]1[C@H]2Cc3ccc(O)cc3[C@@]1(C)CCN2CC1CC1.CS(=O)(=O)O` (stereo not given in full), the AD50 in experiment [3] is 0.04 mg/kg. In experiment [2] (setting [6]), the ED50 amounted to 7.9 mg/kg.

Take `CN1CC[C@]2(C)c3cc(O)ccc3C[C@@H]1[C@H]2CCC(C)(O)C(C)(C)C.CS(=O)(=O)O` (stereo in doubt; 4e): the Activity in experiment [4] was under 50%. Moreover, the ED50 in experiment [2] was over 75 mg/kg.
